In ChEMBL document CHEMBL4229434, “Design, synthesis, and evaluation of novel l-phenylglycine derivatives as potential PPARγ lead compounds” (Bioorg Med Chem, 2018):
Values joined by “and” are separate entries in the source; they are usually repeats but may differ in a detail not shown here. Equal entries are not always repeated.

Columns and labels:
[1] = target: T1, Peroxisome proliferator-activated receptor gamma (Homo sapiens) (UniProt P37231); assay: Agonist activity at PPARgamma in human HepG2 cells assessed as activation of PPRE at 10 ug/ml incubated for 24 hrs by dual luciferase reporter gene assay relative to pioglitazone; assay type: cell-based
T1 sequence (whole entry): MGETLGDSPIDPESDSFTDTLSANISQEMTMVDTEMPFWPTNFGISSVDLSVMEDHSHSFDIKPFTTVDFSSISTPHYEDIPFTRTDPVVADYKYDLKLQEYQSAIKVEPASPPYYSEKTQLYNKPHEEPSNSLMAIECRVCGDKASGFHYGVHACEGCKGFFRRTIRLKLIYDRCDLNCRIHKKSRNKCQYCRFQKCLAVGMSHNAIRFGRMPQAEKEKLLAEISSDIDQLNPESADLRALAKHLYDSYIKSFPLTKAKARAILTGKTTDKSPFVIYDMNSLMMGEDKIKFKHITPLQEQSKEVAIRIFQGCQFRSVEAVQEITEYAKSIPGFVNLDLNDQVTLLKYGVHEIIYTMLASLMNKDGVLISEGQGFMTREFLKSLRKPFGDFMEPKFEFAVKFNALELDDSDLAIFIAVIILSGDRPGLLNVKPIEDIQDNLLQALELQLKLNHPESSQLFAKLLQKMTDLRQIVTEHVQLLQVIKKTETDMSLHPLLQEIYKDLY

[2] = target: T1, Peroxisome proliferator-activated receptor gamma (Homo sapiens); assay: Agonist activity at PPARgamma in human HepG2 cells assessed as activation of PPRE at 10 ug/ml incubated for 24 hrs by dual luciferase reporter gene assay relative to control; assay type: cell-based
[3] = target: Dipeptidyl peptidase 4 (Homo sapiens) (UniProt P27487); assay: Inhibition of recombinant human C-terminal His-tagged DPP-4 (29 to 766 residues) expressed in Sf9 insect cells at 10 ug/ml using dipeptidyl peptidase […] as substrate incubated for 10 mins followed by substrate addition measured after 40 mins by fluorescence assay relative to control
[4] = species on record: Rattus norvegicus; assay: Inhibition of rat small intestine alpha-glucosidase at 10 ug/ml using maltose/glucose as substrate incubated for 10 mins followed by substrate addition measured after 10 mins relative to control
[5] = target: T2, Peroxisome proliferator-activated receptor gamma (Homo sapiens, UniProt P37231); assay: Agonist activity at PPARgamma in human HepG2 cells assessed as activation of PPRE incubated for 24 hrs by dual luciferase reporter gene assay; assay type: cell-based
T2 sequence (P37231 whole entry): T1 sequence (whole entry)

[6] = species on record: Rattus norvegicus; assay: Inhibition of rat small intestine alpha-glucosidase at 3.74 umol/L using maltose/glucose as substrate incubated for 10 mins followed by substrate addition measured after 10 mins relative to control
[7] = target: T1, Peroxisome proliferator-activated receptor gamma (Homo sapiens); assay: Agonist activity at PPARgamma in human HepG2 cells assessed as activation of PPRE at 23.05 umol/L incubated for 24 hrs by dual luciferase reporter gene assay relative to control; assay type: cell-based

Chain of Dipeptidyl peptidase 4 (Homo sapiens) (P27487 whole entry, looked up, the tested form may be a part): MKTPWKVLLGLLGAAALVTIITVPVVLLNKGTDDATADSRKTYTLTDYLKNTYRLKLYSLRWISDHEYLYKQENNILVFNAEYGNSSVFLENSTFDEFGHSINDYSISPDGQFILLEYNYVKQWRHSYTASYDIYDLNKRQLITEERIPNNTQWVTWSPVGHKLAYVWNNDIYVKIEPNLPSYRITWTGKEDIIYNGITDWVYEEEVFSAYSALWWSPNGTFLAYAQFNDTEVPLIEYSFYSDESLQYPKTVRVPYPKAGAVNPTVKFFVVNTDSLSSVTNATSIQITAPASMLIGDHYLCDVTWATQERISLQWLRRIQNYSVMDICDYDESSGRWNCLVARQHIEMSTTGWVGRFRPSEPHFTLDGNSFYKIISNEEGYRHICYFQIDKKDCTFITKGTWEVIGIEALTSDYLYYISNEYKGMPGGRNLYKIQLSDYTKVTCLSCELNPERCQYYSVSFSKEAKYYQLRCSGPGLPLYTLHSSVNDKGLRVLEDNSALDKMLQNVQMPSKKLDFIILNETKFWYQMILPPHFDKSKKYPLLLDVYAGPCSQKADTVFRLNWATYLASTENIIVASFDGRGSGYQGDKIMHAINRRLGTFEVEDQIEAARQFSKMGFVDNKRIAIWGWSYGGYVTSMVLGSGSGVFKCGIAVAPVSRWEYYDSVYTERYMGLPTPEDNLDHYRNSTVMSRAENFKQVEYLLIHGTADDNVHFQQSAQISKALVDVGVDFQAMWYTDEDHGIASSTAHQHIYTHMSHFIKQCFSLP

Row | Compound | Activity [1] | Activity [2] | inhibition [3] | inhibition [4] | EC50 [5] | inhibition [6] | Activity [7]
1 | COC(=O)[C@@H](NC(=O)OCc1ccccc1)c1cccc(NC(=O)CCCCl)c1 | 11.8% | 11.6% | – | – | – | – | –
2 | O=C(Cn1cnc2ccccc21)Nc1cccc([C@H](NC(=O)OCc2ccccc2)C(=O)O)c1 | 4.3% | 3.85% | -0.74% | 0.99% | – | – | –
3 | CCCC(=O)Nc1cccc([C@H](NC(=O)OCc2ccccc2)C(=O)OC)c1 | 11.2% | 12% | – | – | – | – | –
4 | COC(=O)[C@@H](NC(=O)OCc1ccccc1)c1cccc(NC(=O)CCl)c1 | 100% | 105 to 179% | 16.1% | 14.6% | 22.4 µM | – | –
5 | COC(=O)[C@@H](NC(=O)OCc1ccccc1)c1cccc(NC(=O)Cn2nnnc2SC)c1 | 22.4% | 19.5% | – | – | – | – | –
6 | Cc1cc(NS(=O)(=O)c2ccc(NCC(=O)Nc3cccc([C@H](NC(=O)OCc4ccccc4)C(=O)O)c3)cc2)no1 | 58.8% | 40.6% | 11.1% | 8.89% | – | – | –
7 | OCC(CO)N[C@H]1C[C@](O)(CO)[C@@H](O)[C@H](O)[C@H]1O | – | – | – | – | – | 104% | –
8 | COC(=O)[C@@H](NC(=O)OCc1ccccc1)c1cccc(NC(C)=O)c1 | 21.6% | 24.9% | – | – | – | – | –
9 | CCC(=O)Nc1cccc([C@H](NC(=O)OCc2ccccc2)C(=O)OC)c1 | 16.5% | 18.3% | – | – | – | – | –
10 | CN(CCO)C(=O)[C@@H](NC(=O)OCc1ccccc1)c1cccc(NC(=O)CCl)c1 | 124% | 120% | – | – | 8.97 µM | – | 208%
11 | CCOC(=O)[C@@H](NC(=O)OCc1ccccc1)c1cccc(NC(=O)CCl)c1 | -23.9% | -24.8% | – | – | – | – | –
12 | COCC(=O)Nc1cccc([C@H](NC(=O)OCc2ccccc2)C(=O)OC)c1 | -16.1% | -17.1% | – | – | – | – | –
13 | O=C(CN1C(=O)c2ccccc2C1=O)Nc1cccc([C@H](NC(=O)OCc2ccccc2)C(=O)O)c1 | 47.4% | 39.9% | – | 17.8% | – | – | –
14 | COC(=O)[C@@H](NC(=O)OCc1ccccc1)c1cccc(NC(=O)Cn2cnc3ccccc32)c1 | 4.52% | 3.93% | -0.31% | 2.91% | – | – | –
15 | COC(=O)[C@@H](NC(=O)OCc1ccccc1)c1cccc(NC(=O)CN2CCN(C(=O)OC(C)(C)C)CC2)c1 | -10.9% | -8.27% | -6.12% | 15.5% | – | – | –

Results, then the compound that gave them:

Row | Activity [1] | Activity [2] | inhibition [3] | inhibition [4] | EC50 [5] | inhibition [6] | Activity [7] | Compound
16 | -3.5% | -3.55% | – | – | – | – | – | COC(=O)[C@@H](NC(=O)OCc1ccccc1)c1cccc(NC(=O)CCCl)c1
17 | -9.41% | 7.66% | 8.99% | 9.26% | – | – | – | COC(=O)[C@@H](NC(=O)OCc1ccccc1)c1cccc(NC(=O)CSc2nc3ccccc3[nH]2)c1
18 | 15.4% | 14.4% | – | – | – | – | – | COC(=O)[C@@H](NC(=O)OCc1ccccc1)c1cccc(NC(=O)Cn2nnnc2C)c1
19 | 14.6% | 11.9% | 2.17% | 17.5% | – | – | – | COC(=O)[C@@H](NC(=O)OCc1ccccc1)c1cccc(NC(=O)CN2C(=O)c3ccccc3C2=O)c1
20 | 14.9% | 14.4% | – | – | – | – | – | COC(=O)[C@@H](NC(=O)OCc1ccccc1)c1cccc(NC(=O)Cn2cnnn2)c1
21 | 27.5% | 21.4% | 5.26% | 13.7% | – | – | – | CC(C)(C)OC(=O)N1CCN(CC(=O)Nc2cccc([C@H](NC(=O)OCc3ccccc3)C(=O)O)c2)CC1
22 | -17.1% | -17.1% | – | – | – | – | – | CCCOC(=O)[C@@H](NC(=O)OCc1ccccc1)c1cccc(NC(=O)CCl)c1
23 | -19.3% | -20.1% | – | – | – | – | – | CCNC(=O)[C@@H](NC(=O)OCc1ccccc1)c1cccc(NC(=O)CCl)c1
24 | -17.4% | -18.8% | – | – | – | – | – | CNC(=O)[C@@H](NC(=O)OCc1ccccc1)c1cccc(NC(=O)CCl)c1
25 | -4.96% | -5.33% | – | – | – | – | – | O=C(CCl)Nc1cccc([C@H](NC(=O)OCc2ccccc2)C(=O)NO)c1
26 | 52.8% and 49.1% | 53.5% | – | 17.7% | – | – | – | O=C(CCl)Nc1cccc([C@H](NC(=O)OCc2ccccc2)C(=O)O)c1
27 | 27.9% | 18.9% | 5.87% | 11.8% | – | – | – | COC(=O)[C@@H](NC(=O)OCc1ccccc1)c1cccc(NC(=O)CNc2ccc(S(=O)(=O)Nc3cc(C)on3)cc2)c1
28 | 39.4% | 32.9% | -7.54% | 12.6% | – | – | – | O=C(CSc1nc2ccccc2[nH]1)Nc1cccc([C@H](NC(=O)OCc2ccccc2)C(=O)O)c1
29 | 1.49% | 1.36% | – | – | – | – | – | COC(=O)[C@@H](NC(=O)OCc1ccccc1)c1cccc(NC(=O)Cn2nc(C)cc2C)c1
30 | -5.58% | -5.01% | – | – | – | – | – | CCCCOC(=O)[C@@H](NC(=O)OCc1ccccc1)c1cccc(NC(=O)CCl)c1
